Counter-ions that a name gives are not always drawn.

These results are taken from patent US20100029704A1, “SALT OF NONSTEROIDAL ANTI-INFLAMMATORY DRUG AND ORGANIC AMINE COMPOUND AND USE THEREOF” (priority 2007, published 2010).

For series [1] the following is noted: room temperature; crystals were indomethacin:lidocain 2:1; cited from earlier work.
A short description of series [2]: Form of the salt on standing / long-term preservation. Type of series: physicochemical. Here is the method: First, a salt was produced using equimolar amounts of a carboxylic acid NSAID and organic amine. […] The obtained ionic liquid or crystals and the like were left standing, confirmed to be stable, and then the forms thereof were observed. This has clarified that the salt produced by the combination of NSAID and an organic amine compound may be a liquid (viscous liquid) or crystal at ambient temperature (25° C.).

A short description of series [3]: Skin permeability test using isolated rat abdominal skin (Franz-type diffusion cell). Particulars: accumulated up to 6 hours, 2.5 wt % as NSAID free acid in diethyl sebacate/propylene glycol, 32° C. As for the experimental part:
An equimolar salt of NSAID and organic amine was dissolved in a mixture of diethyl sebacate and propylene glycol to give a solution preparation. For comparison, a solution preparation (control) of NSAID was prepared in the same manner.
As a receptor solution, saline-ethanol solution (9:1, 8 ml) was placed in an upright Franz-type diffusion cell (effective diffusion area: 1 cm^2), and the solution was stirred and maintained at 32° C. An isolated abdominal shaved skin of 6-week-old Wistar rat was applied to the Franz cell, and the prepared solution preparation (0.15 ml) was applied to the skin. A part (300 μL) of the receptor solution was taken at predetermined time intervals, the drug concentration in the receptor solution was measured by high performance liquid chromatography, and the drug permeation amount per 1 cm^2 rat skin was calculated.
Unless otherwise indicated, in the following Experimental Examples, the drug concentration of the solution preparation is 2.5 wt % as NSAID free acid, and the skin permeation amount is an accumulated amount (μg/cm^2) up to 6 hours.

Series [4] can be described thus: Solubility of NSAID-eperisone salt and NSAID free acid in diethyl sebacate. The class given is physicochemical. Particulars: for dissolution in diethyl sebacate (50 g): 5 g NSAID free acid or ionic liquid corresponding to 5 g NSAID, shaken at room temperature for 30 min; for amount (g) of diethyl sebacate necessary for dissolving NSAID (1 g): NSAID free acid; for amount (g) of diethyl sebacate necessary for dissolving NSAID (1 g) / amount (g) of diethyl sebacate necessary for dissolving an eperisone salt corresponding to NSAID (1 g): room temperature. As for the experimental part: The solubility of an eperisone salt of NSAID, and a free acid of NSAID in diethyl sebacate widely used for external preparations was measured. […] The solutions were stood still and, when an undissolved matter was found, diethyl sebacate was further added, and the mixture was shaken.

With `CCN(CC)CC(=O)Nc1c(C)cccc1C.COc1ccc2c(c1)c(CC(=O)O)c(C)n2C(=O)c1ccc(Cl)cc1`, the “stability of the ionic liquid when stood still” value in series [1] is listed as “crystals were gradually precipitated”.

`CCN(CC)CC(=O)Nc1c(C)cccc1C.O=C(O)Cc1ccccc1Nc1c(Cl)cccc1Cl` [diclofenac-lidocain salt]: the “form/note: crystallization during long-term preservation” value in series [2] was “partial”.

`Cc1ccc(C(=O)C(C)CN2CCCCC2)cc1.O=C(O)Cc1ccccc1Nc1c(Cl)cccc1Cl` [diclofenac-tolperisone salt] came in with a diclofenac permeation amount in series [3] of 20.3 μg/cm^2.

Consider `COc1cccc(C2(O)CCCCC2CN(C)C)c1.O=C(O)Cc1ccccc1Nc1c(Cl)cccc1Cl` (stereo not shown) [diclofenac-tramadol salt], for which the “form/note: crystallization during long-term preservation” value in series [2] is on record as “crystallized”.

`O=C(O)Cc1ccccc1Nc1c(Cl)cccc1Cl` [diclofenac]: in series [4], the “dissolution in diethyl sebacate (50 g)” value was “not dissolved” and the “amount (g) of diethyl sebacate necessary for dissolving NSAID (1 g)” value (“amount (g) … for dissolving NSAID (1 g)” for short) is “not less than 100 g”. The compound further showed a diclofenac permeation amount in series [3] of 8.8 μg/cm^2.

Consider `CCc1cccc2c3c([nH]c12)C(CC)(CC(=O)O)OCC3` (stereo not shown) [etodolac, reference compound], for which, in series [4], the “amount (g) … for dissolving NSAID (1 g)” value is listed as “not more than 10 g”. In series [3], this compound displayed an etodolac permeation amount of 10.4 μg/cm^2.

Consider `CCc1ccc(C(=O)C(C)CN2CCCCC2)cc1.CCc1cccc2c3c([nH]c12)C(CC)(CC(=O)O)OCC3` (stereo not shown) [etodolac-eperisone salt], for which the “amount (g) of diethyl sebacate necessary for dissolving an eperisone salt corresponding to NSAID (1 g)” value (from here on “amount (g) … to NSAID (1 g)”) in series [4] was “not more than 10 g”. This compound also registered an etodolac permeation amount in series [3] of 20.5 μg/cm^2.

As to `CCc1cccc2c3c([nH]c12)C(CC)(CC(=O)O)OCC3.Cc1ccc(C(=O)C(C)CN2CCCCC2)cc1` (stereo not shown) [etodolac-tolperisone salt], the etodolac permeation amount in series [3] stood at 22.3 μg/cm^2.

Consider `CC(C(=O)O)c1ccc(-c2ccccc2)c(F)c1` (stereo not shown) [flurbiprofen, reference compound], for which, in series [4], the “amount (g) … for dissolving NSAID (1 g)” value is reported as “not more than 10 g”. The same compound returned a flurbiprofen permeation amount in series [3] of 20.2 μg/cm^2.

With `CC(C(=O)O)c1ccc(-c2ccccc2)c(F)c1.CC(O)CN(CC(C)O)CC(C)O` (stereo not shown) [flurbiprofen-TIPA salt], in series [3], the flurbiprofen permeation amount was found to be 91.8 μg/cm^2.

As to `CC(C(=O)O)c1ccc(-c2ccccc2)c(F)c1.CCc1ccc(C(=O)C(C)CN2CCCCC2)cc1` (stereo not shown) [flurbiprofen-eperisone salt], the “amount (g) … to NSAID (1 g)” value in series [4] is “not more than 10 g”.

Compound `CC(C(=O)O)c1ccc(-c2ccccc2)c(F)c1.CCN(CC)CC(=O)Nc1c(C)cccc1C` (stereo not shown) [flurbiprofen-lidocain salt] gave a flurbiprofen permeation amount in series [3] of 91.0 μg/cm^2.

As for `CC(C(=O)O)c1ccc(-c2ccccc2)c(F)c1.Cc1ccc(C(=O)C(C)CN2CCCCC2)cc1` (stereo not shown) [flurbiprofen-tolperisone salt], the flurbiprofen permeation amount in series [3] came out at 46.3 μg/cm^2.

In series [3], `CC(C(=O)O)c1ccc(-c2ccccc2)c(F)c1.COc1cccc(C2(O)CCCCC2CN(C)C)c1` (stereo not shown) [flurbiprofen-tramadol salt] came in with a flurbiprofen permeation amount of 78.1 μg/cm^2.

`CC(O)CN(CC(C)O)CC(C)O.COc1ccc2c(c1)c(CC(=O)O)c(C)n2C(=O)c1ccc(Cl)cc1` [indomethacin-TIPA salt] displayed an indomethacin permeation amount in series [3] of 15.8 μg/cm^2.

As for `CCc1ccc(C(=O)C(C)CN2CCCCC2)cc1.COc1ccc2c(c1)c(CC(=O)O)c(C)n2C(=O)c1ccc(Cl)cc1` [indomethacin-eperisone salt], the “amount (g) … to NSAID (1 g)” value in series [4] was “not more than 10 g”.

Compound `COc1ccc2c(c1)c(CC(=O)O)c(C)n2C(=O)c1ccc(Cl)cc1.Cc1ccc(C(=O)C(C)CN2CCCCC2)cc1` [indomethacin-tolperisone salt] came in with an indomethacin permeation amount in series [3] of 14.7 μg/cm^2.

Regarding `COc1ccc2c(c1)c(CC(=O)O)c(C)n2C(=O)c1ccc(Cl)cc1.COc1cccc(C2(O)CCCCC2CN(C)C)c1` [indomethacin-tramadol salt], the indomethacin permeation amount in series [3] is recorded as 9.8 μg/cm^2.

As to `COc1ccc2c(c1)c(CC(=O)O)c(C)n2C(=O)c1ccc(Cl)cc1` [indomethacin], in series [4], the “dissolution in diethyl sebacate (50 g)” value is given as “not dissolved” and the “amount (g) … for dissolving NSAID (1 g)” value is on record as “not less than 100 g”. The compound also registered an indomethacin permeation amount in series [3] of 6.9 μg/cm^2.

With `CC(C(=O)O)c1cccc(C(=O)c2ccccc2)c1` (stereo not shown) [ketoprofen, reference compound], in series [3], the Ketoprofen permeation amount stood at 36.1 μg/cm^2.

On to `CC(C(=O)O)c1ccc(CC2CCCC2=O)cc1` (stereo not shown) [loxoprofen sodium salt, reference compound], for which the loxoprofen permeation amount in series [3] (sodium salt) was determined as 27.1 μg/cm^2.

As to `CC(C(=O)O)c1ccc(CC2CCCC2=O)cc1.CCCCN1CCCCC1C(=O)Nc1c(C)cccc1C` (stereo not shown) [loxoprofen-bupivacaine salt], the “form/note: crystallization during long-term preservation” value in series [2] is on record as “partially”.

Take `CC(C(=O)O)c1ccc(CC2CCCC2=O)cc1.CCc1ccc(C(=O)C(C)CN2CCCCC2)cc1` (stereo not shown) [loxoprofen-eperisone salt]: the “amount (g) … to NSAID (1 g)” value in series [4] was “not more than 10 g”. Besides, the loxoprofen permeation amount in series [3] was found to be 91.2 μg/cm^2.

Take `CC(C(=O)O)c1ccc(CC2CCCC2=O)cc1.CCN(CC)CC(=O)Nc1c(C)cccc1C` (stereo not shown) [loxoprofen-lidocain salt]: in series [3], the loxoprofen permeation amount is recorded as 103.4 μg/cm^2.

In series [3], `CC(C(=O)O)c1ccc(CC2CCCC2=O)cc1.Cc1ccc(C(=O)C(C)CN2CCCCC2)cc1` (stereo not shown) [loxoprofen-tolperisone salt] came in with a loxoprofen permeation amount of 82.3 μg/cm^2.

Turning to `CC(C(=O)O)c1ccc(CC2CCCC2=O)cc1` (stereo not shown) [loxoprofen], in series [4], the “dissolution in diethyl sebacate (50 g)” value is “not dissolved” and the “amount (g) … for dissolving NSAID (1 g)” value was “not less than 100 g”. For the same compound, the loxoprofen permeation amount in series [3] (listed as loxoprofen free acid) is 49.5 μg/cm^2.

In turn, loxoprofen-DIPA salt had a loxoprofen permeation amount in series [3] of 68.6 μg/cm^2.
